Experimental data reported in patent US20200323823A1, “METHODS FOR THE TREATMENT OF DEPRESSION” (Praxis Precision Medicines, Inc., priority 2018, published 2020).
Read-outs that look alike come from different tables or passages of the source.

Experiments:
[1] = Randomized, double-blind, placebo-controlled multiple escalating dose study, plasma PK of Compound 1 oral suspension (Cohorts 1-3); conditions: for Vd/F: Vz/F
Procedure: (§2) Healthy subjects aged 18 to 55 years were treated with an oral suspension of Compound 1 to study the safety, tolerability, pharmacokinetics and pharmacodynamics of Compound 1 in healthy subjects.
(§3) The study was a randomized, double-blind, placebo-controlled multiple escalating dose study comprised of 3 cohorts that each received an oral suspension. Each cohort consisted of two groups: one group treated with Compound 1 and another treated with placebo. In each cohort, the ratio of Compound 1-treated subjects to placebo-treated subjects was 3:1.
(§4) The Compound 1-treated subjects of Cohort 1 were treated with 15.0 mg of Compound 1 once per day (QD). The Compound 1-treated subjects of Cohort 2 were treated with 30.0 mg of Compound 1 QD. The Compound 1-treated subjects of Cohort 3 were treated with 60.0 mg of Compound 1 QD.
(§5) Patients in each cohort were treated with Compound 1 for 14 consecutive days, unless dosing was halted by the Safety Review Committee (SRC). The dosing of subjects in each of the cohorts was staggered with the decision to dose escalate based on SRC review of a minimum of 14 days of observation of safety and tolerability data and review of the available plasma PK data from the preceding cohort(s). Thus, dose escalation was predicated on tolerability of the prior cohorts.
(§6) Compound 1 was administered under fasted conditions (no food or drink, except water, for at least 10 hours prior to dosing). Immediately after administration of Compound 1, the subject was be administered 240 mL water. No additional fluid intake was allowed until 1 hour after Compound 1 administration.
(§7) Cohort 1 subjects received a single 15.0 mg dose of a Compound 1 suspension on the morning of Days 1-14. Cohort 2 subjects received a single 30.0 mg dose of a Compound 1 suspension on the morning of Days 1-14. Cohort 3 subjects received a single 60.0 mg dose of a Compound 1 suspension on the morning of Days 1-14. For all cohorts, the last treatment was administered on the morning of Day 14.
(§8) Data were obtained from the blood plasma samples collected from each cohort according to the schedule provided.
(§9) Plasma samples were analyzed to determine Compound 1 concentrations using a validated assay method. Pharmacokinetic variables (including but not limited to Cmax, Tmax and AUC(0-last)), were calculated using non-compartmental analysis. PK parameters for Compound 1 were derived from the plasma concentration data using non-compartmental analysis with Phoenix™ WinNonlin® v 8.0 (Pharsight Corporation, USA).
(§10) For each cohort, blood samples were collected on Days 1, 2, 3, 4, 5, 6 and 14 at the following time points: Day 1 at pre-dose (0 hour), 0.25, 0.5, 0.75, 1, 1.5, 2, 2.5, 3, 4, 6, 8, 12, 16 h post-dose; Day 2 at pre-dose (24 h), Day 3 at pre-dose (48 h), Day 4 at pre-dose (72 h), Day 5 at pre-dose (96 h), Day 6 at pre-dose (120 h); Day 14 at pre-dose 0.25, 0.5, 0.75, 1, 1.5, 2, 2.5, 3, 4, 6, 8, 12, 16, 24, 36, 48, and 72 hours. Trough level blood samples were collected on Days 2, 3, 4, 5, 6 and 14, prior to the morning dose administrations.
(§11) Descriptive statistics were calculated for plasma and urine PK parameter and concentration data, and summarized by study day and time point. Arithmetic means, coefficient of variation (CV), standard deviation, median, minimum, and maximum values, and number of observations were calculated for all PK parameters and trough concentration data. Except for Tmax, the geometric mean, geometric standard deviation, and geometric CV were provided for all PK parameter and concentration data.

clinical = conditions: human, in vivo; for AUC(0-inf): AUCinf
Procedure: as §2, §3, §4, §5, §6, §7, §8, §9, §10, §11

[2] = in vivo, po
Procedure: (§12) The Day 1 dose was administered after a minimum of 10 hour fasting. No additional fluid intake was allowed until 1 hour after drug administration. A standard meal was given at least 4 hours post-dose. The Day 5 dose was administered following a high-fat, high calorie meal. Participants remained at the clinical site for a total of 8 days to complete PK sampling after the second dose.
(§13) Pharmacokinetic variables (including but not limited to Cmax, Tmax and AUC(0-last)), were calculated using non-compartmental analysis.
(§14) Urine (Cohort 4): No urine analysis was conducted in Cohort 4.

[3] = Safety/tolerability in MDD patients, Part A; format: in vivo, human; conditions: 80 mg Cohort, compared to the 45 mg Cohort
Procedure: (§1) In Part A, participants were administered daily doses of Compound 1 (45 mg Cohort and 80 mg Cohort) at 4 PM on Day 1 and qHS on all other study days for 7 days inpatient followed by 7 days outpatient (with subsequent Cohorts receiving up to 120 mg qHS). Participants checked into the clinic on Day 1. During this period the following assessments were performed: adverse event assessments, vital signs, physical examinations, blood and urine samples for safety assessments, ECGs, C-SSRS assessments, blood samples for PK, and efficacy assessments (HAM-D, MADRS, HAM-A, CGI [CGI-S and CGI-I], PSQI, and SDQ). Baseline assessments occurred on Day 1 prior to administration of study drug. On Day 8, prior to discharge, participants were supplied with sufficient Compound 1 to complete 7 days of dosing.
Adverse events (AEs) will be monitored throughout the duration of the study.

[4] = Food Effect Cohort (Cohort 4), single 30 mg dose fasted vs high-fat, high calorie meal, plasma PK; conditions: human, po, t 1/2, Cohort 4, single 30 mg oral, n = 10, Mean (SD)
Procedure: as §12, §13, §14

[5] = system: patients with severe major depressive disorder (MDD); assay: Open-label study in severe MDD, Part A, HAM-D efficacy; format: in vivo, human
Procedure: The study is an open-label, study comprised of two dosing periods, Part A and Part B, during which patients were treated with an oral suspension of Compound 1. Part A was an open-label assessment of two dose levels of Compound 1 (45 mg qHS Cohort 1 and 80 mg qHS Cohort, i.e., once daily administration at bedtime) administered for 7 days inpatient followed by 7 days outpatient. PRAX-114 was administered at 4 PM on Day 1 in order to collect post-dosing PK samples that could not be collected with qHS dosing.
as §1
Patients were administered daily doses of Compound 1 for 7 days inpatient followed by 7 days outpatient.
In the 45 mg Cohort, patients were administered once daily dose of 45 mg of Compound 1 at bedtime for 7 days inpatient followed by once daily dose of 45 mg of Compound 1 at bedtime for 7 days outpatient.
In the 80 mg Cohort, patients were administered once daily dose of 80 mg of Compound 1 at bedtime for 7 days inpatient followed by once daily dose of 80 mg of Compound 1 at bedtime for 7 days outpatient.
In Part A, HAM-D, MADRS, HAM-A, CGI-S, and CGI-I values were collected in the morning of Days 1, 2, 3, 4, 5, 6, 7, 8, 15, 21 and 28. PSQI and SDQ values will be collected on Days 1, 8, 15, 21 and 28. Part B: In Part B, HAM-D, MADRS, HAM-A, CGI-S, CGI-I, PSQI and SDQ values will be collected on the days described for Part A.
HAM-D Response was defined as a reduction from baseline of ≥50% in total HAM-D score. HAM-D remission was defined as a total HAM-D score of ≤7.
For both parts of the clinical trial, the HAM-D total score and change from baseline values will be summarized by treatment group and time point. In addition, the change from baseline in HAM-D total score will also be analyzed using paired t-tests or similar methods. The null hypothesis of this test is that the mean difference in HAM-D total score between paired observations (i.e., pre- and post-treatment) is zero. Similar analysis methods will be used for all secondary and exploratory efficacy variables.

[6] = human, in vivo
Procedure: as §2, §3, §4, §5, §6, §7, §8, §9, §10, §11

[7] = Cohort 1, 15.0 mg QD oral, Day 14, Mean
[8] = Cohort 2, 30.0 mg QD oral, Day 14, Mean

COC[C@@]1(O)CC[C@@]2(C)[C@@H](CC[C@@H]3[C@@H]2CC[C@]2(C)[C@@H](C(=O)Cn4ccnc4)CC[C@@H]32)C1 [Compound 1, 3α-Hydroxy-3β-methoxymethyl-21-(1′-imidazolyl)-5α-pregnan-20-one]
CLss/F ([1]; Cohort 1, 15.0 mg QD oral, Day 14, Geo Mean): 30.497 L/h | CLss/F [1, 7]: 31.415 L/h | t1/2 [1, 7]: 14.772 h | CLss/F ([1]; Cohort 1, 15.0 mg QD oral, Day 14, Median): 30.41 L/h | CLss/F ([1]; Cohort 2, 30.0 mg QD oral, Day 14, Geo Mean): 30.178 L/h | CLss/F [1, 8]: 30.949 L/h | t1/2 [1, 8]: 12.701 h | CLss/F ([1]; Cohort 2, 30.0 mg QD oral, Day 14, Median): 30.12 L/h | CLss/F ([1]; Cohort 3, 60.0 mg QD oral, Day 14, Geo Mean): 30.398 L/h | CLss/F ([1]; Cohort 3, 60.0 mg QD oral, Day 14, Mean): 32.142 L/h | CLss/F ([1]; Cohort 3, 60.0 mg QD oral, Day 14, Median): 28.45 L/h | Vd/F ([1]; human, plasma, po, 15 mg, Cohort 1, 15.0 mg QD oral, Day 14, Geo Mean): 643 L | Vd/F ([1]; human, plasma, po, 15 mg, Cohort 1, 15.0 mg QD oral, Day 14, Mean): 655 L | Vd/F ([1]; human, plasma, po, 15 mg, Cohort 1, 15.0 mg QD oral, Day 14, Median): 657 L | half-life ([1]; human, plasma, po, 15 mg, t1/2, Cohort 1, 15.0 mg QD oral, Day 14, Geo Mean): 14.6 h | half-life ([1]; human, plasma, po, 15 mg, t1/2, Cohort 1, 15.0 mg QD oral, Day 14, Mean): 14.8 ± 2.26 h | half-life ([1]; human, plasma, po, 15 mg, t1/2, Cohort 1, 15.0 mg QD oral, Day 14, Median): 15.3 h | Cmax ([1]; human, plasma, po, 30 mg, Cmax, Cohort 2, 30.0 mg QD oral, Day 1, Geometric Mean): 120 ng/mL | Vd/F ([1]; human, plasma, po, 30 mg, Cohort 2, 30.0 mg QD oral, Day 14, Geo Mean): 551 L | Vd/F ([1]; human, plasma, po, 30 mg, Cohort 2, 30.0 mg QD oral, Day 14, Mean): 570 L | Vd/F ([1]; human, plasma, po, 30 mg, Cohort 2, 30.0 mg QD oral, Day 14, Median): 514 L | half-life ([1]; human, plasma, po, 30 mg, t1/2, Cohort 2, 30.0 mg QD oral, Day 14, Geo Mean): 12.6 h | half-life ([1]; human, plasma, po, 30 mg, t1/2, Cohort 2, 30.0 mg QD oral, Day 14, Mean): 12.7 ± 1.23 h | half-life ([1]; human, plasma, po, 30 mg, t1/2, Cohort 2, 30.0 mg QD oral, Day 14, Median): 12.9 h | Vd/F ([1]; human, plasma, po, 60 mg, Cohort 3, 60.0 mg QD oral, Day 14, Geo Mean): 533 L | Vd/F ([1]; human, plasma, po, 60 mg, Cohort 3, 60.0 mg QD oral, Day 14, Mean): 574 L | Vd/F ([1]; human, plasma, po, 60 mg, Cohort 3, 60.0 mg QD oral, Day 14, Median): 531 L | half-life ([1]; human, plasma, po, 60 mg, t1/2, Cohort 3, 60.0 mg QD oral, Day 14, Geo Mean): 12.2 h | half-life ([1]; human, plasma, po, 60 mg, t1/2, Cohort 3, 60.0 mg QD oral, Day 14, Mean): 12.2 ± 1.32 h | half-life ([1]; human, plasma, po, 60 mg, t1/2, Cohort 3, 60.0 mg QD oral, Day 14, Median): 12.4 h | half-life ([1]; human, plasma, po, mean t1/2, steady state, across Cohorts 1-3 (15.0-60.0 mg QD oral)): 12.2 to 14.8 h | Tmax (clinical): ≤ 2 h | AUC (clinical; po, 15 mg, AUC0-tau): 362 ng·h/mL | AUC(0-inf) (clinical; po, 15 mg): 600 ng·h/mL | AUC (clinical; po, 15 mg, AUCss): 492 ng·h/mL | Cmax (clinical; po, 15 mg): 56 ng/mL | Cmax (clinical; po, 15 mg, ss): 65 ng/mL | Tmax (clinical; po, 15 mg): 1.03 h | Tmax (clinical; po, 15 mg, ss): 1.07 h | AUC (clinical; po, 30 mg, AUC0-tau): 842 ng·h/mL | AUC(0-inf) (clinical; po, 30 mg): 1230 ng·h/mL | AUC (clinical; po, 30 mg, AUCss): 1020 ng·h/mL | Cmax (clinical; po, 30 mg): 133 ng/mL | Cmax (clinical; po, 30 mg, ss): 164 ng/mL | Tmax (clinical; po, 30 mg, ss): 0.964 h | AUC (clinical; po, 60 mg, AUC0-tau): 2340 ng·h/mL | AUC(0-inf) (clinical; po, 60 mg): 2370 ng·h/mL | AUC (clinical; po, 60 mg, AUCss): 2080 ng·h/mL | Cmax (clinical; po, 60 mg): 364 ng/mL | Cmax (clinical; po, 60 mg, ss): 355 ng/mL | Tmax (clinical; po, 60 mg): 1.14 h | Tmax (clinical; po, 60 mg, ss): 0.969 h | Tmax ([2]; human): 1.00 (0.75, 1.77) h | Cmax higher under fasting conditions compared to fed conditions ([2]; human, 30 mg): 1.5-1.6 times | t½, fasted versus fed conditions [2]: similar | tolerability / Adverse Event profile [3]: well tolerated with no change in Adverse Event profile | half-life ([4]; Fasted (Day 1)): 11.2 h | half-life ([4]; Fed (Day 1 as printed)): 11.3 h | least squares Mean Change from Baseline in HAM-D score ([5]; 45 mg Cohort, Day 7): −17.8 | least squares Mean Change from Baseline in HAM-D score ([5]; 45 mg Cohort, Day 15): −13.2 | patients who met the HAM-D Response or Remission criterion ([5]; 45 mg Cohort, once daily at bedtime, Day 7): 11 of the 13 | patients who met the HAM-D Response or Remission criteria ([5]; 45 mg Cohort, once daily at bedtime, Day 15): 8 of the 13 | least squares Mean Change from Baseline in HAM-D score ([5]; 80 mg Cohort, Day 7): −20.0 | least squares Mean Change from Baseline in HAM-D score ([5]; 80 mg Cohort, Day 15): −16.0 | patients who met the HAM-D Response or Remission criteria ([5]; 80 mg Cohort, once daily at bedtime, Day 15): 6 of the 7 | Efficacy by background antidepressant ([5]; as monotherapy and in combination with another antidepressant): Efficacy was observed | symptoms of moderate to severe MDD ([5]; daily dose of 45 mg or 80 mg): exhibited reduced symptoms of moderate to severe MDD | dose dependence of Cavg, AUCss and AUCinf [6]: proportional increase | dose dependence of Cmax and AUC parameters at steady state ([6]; po): approximate proportional increase | steady state clearance ([6]; po): approximately 31 L/h | accumulation factor of the dosing interval (ratio of AUCDay 14/AUCDay 1) ([6]; po, 15 mg): approximately 1.25 | Cmax ([6]; po, 30 mg): 156.00 ng/mL | accumulation factor of the dosing interval (ratio of AUCDay 14/AUCDay 1) ([6]; po, 30 mg): approximately 1.25 | Tmax ([6]; po, 60 mg): 1.00 h | accumulation factor of the dosing interval (ratio of AUCDay 14/AUCDay 1) ([6]; po, 60 mg): 0.89
